Test results reported in PMC3961306, “Comparison of the Cancer Gene Targeting and Biochemical Selectivities of All Targeted Kinase Inhibitors Approved for Clinical Use” (PLoS ONE, 2014).
Like-named read-outs stand apart in the source and are kept apart here.

Tests used:
[1] = target: T1, panel of more than 300 wild-type and mutant kinases (313 kinase panel) (Homo sapiens, UniProt Q16832); assay: Kinase profiling in a biochemical assay panel (mobility shift assays and ELISA), %-inhibition at 1 μM; selectivity entropy; conditions: kinase DDR2; compound at 1 μM
T1 sequence (Q16832 22-855): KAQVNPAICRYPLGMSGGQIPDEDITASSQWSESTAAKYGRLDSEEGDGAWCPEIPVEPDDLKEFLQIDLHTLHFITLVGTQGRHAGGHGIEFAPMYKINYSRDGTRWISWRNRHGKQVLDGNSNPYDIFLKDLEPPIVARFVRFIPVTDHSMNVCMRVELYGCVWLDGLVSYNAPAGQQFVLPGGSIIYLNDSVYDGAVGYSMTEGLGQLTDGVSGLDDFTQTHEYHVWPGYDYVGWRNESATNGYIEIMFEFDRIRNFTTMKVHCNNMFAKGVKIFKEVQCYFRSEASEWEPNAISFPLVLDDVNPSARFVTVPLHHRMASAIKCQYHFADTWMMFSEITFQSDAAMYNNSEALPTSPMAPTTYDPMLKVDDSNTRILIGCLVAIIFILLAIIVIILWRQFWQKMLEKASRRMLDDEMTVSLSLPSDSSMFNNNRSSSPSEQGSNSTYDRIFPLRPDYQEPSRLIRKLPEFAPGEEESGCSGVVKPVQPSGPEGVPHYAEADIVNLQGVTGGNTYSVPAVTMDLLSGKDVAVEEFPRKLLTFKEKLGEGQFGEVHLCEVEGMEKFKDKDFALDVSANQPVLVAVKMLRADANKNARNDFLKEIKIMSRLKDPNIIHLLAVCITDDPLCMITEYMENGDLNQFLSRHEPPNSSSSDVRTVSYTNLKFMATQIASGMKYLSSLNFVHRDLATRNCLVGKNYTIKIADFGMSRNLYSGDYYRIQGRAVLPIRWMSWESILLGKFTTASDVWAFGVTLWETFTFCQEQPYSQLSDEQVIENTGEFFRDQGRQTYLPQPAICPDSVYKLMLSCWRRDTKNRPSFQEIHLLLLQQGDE

[2] = target: panel of more than 300 wild-type and mutant kinases (313 kinase panel) (Homo sapiens, UniProt Q9UM73, R1275Q); assay: as above; conditions: kinase ALK(R1275Q); 1 μM compound
[3] = target: panel of more than 300 wild-type and mutant kinases (313 kinase panel) (Homo sapiens, UniProt P09619); assay: as above; conditions: kinase PDGFRβ; 1 μM
[4] = target: panel of more than 300 wild-type and mutant kinases (313 kinase panel) (Homo sapiens, UniProt P19525); assay: as above; conditions: kinase PKR; 1 μM
[5] = target: panel of more than 300 wild-type and mutant kinases (313 kinase panel) (Homo sapiens, UniProt P11362, V561M); assay: as above; conditions: kinase FGFR1(V561M); compound at 1 μM
[6] = target: panel of more than 300 wild-type and mutant kinases (313 kinase panel) (Homo sapiens, UniProt Q00535); assay: as above; conditions: kinase CDK5/p25; 1 μM compound
[7] = target: panel of more than 300 wild-type and mutant kinases (313 kinase panel) (Homo sapiens, UniProt P22612); assay: as above; conditions: kinase PKACγ; 1 μM
[8] = target: panel of more than 300 wild-type and mutant kinases (313 kinase panel) (Homo sapiens, UniProt O95819); assay: as above; conditions: kinase HGK; compound at 1 μM
[9] = system: forty-four human cancer cell lines; assay: Cell proliferation assay (ATPlite, 72 hours) in the 44 cell line Oncolines panel; format: cell-based; conditions: Homo sapiens

## CO[C@H]1C[C@@H]2CC[C@@H](C)[C@@](O)(O2)C(=O)C(=O)N2CCCC[C@H]2C(=O)O[C@H]([C@H](C)C[C@@H]2CC[C@@H](OCCO)[C@H](OC)C2)CC(=O)[C@H](C)/C=C(\C)[C@@H](O)[C@@H](OC)C(=O)[C@H](C)C[C@H](C)/C=C/C=C/C=C/1C [everolimus]
[1]
  %-inhibition of DDR2: 0%
[2]
  %-inhibition, ALK(R1275Q): -4.29%
[3]
  %-inhibition of PDGFRβ: -3.52%
[4]
  %-inhibition of PKR: -8.45%
[5]
  %-inhibition of FGFR1(V561M): -12%
[6]
  %-inhibition, CDK5/p25: -26%
[7]
  %-inhibition of PKACγ: -7.41%
[8]
  %-inhibition of HGK: 0.896%
[9]; 769-P, cell line 769-P, read-out: cell panel IC50, 769-P
  IC50: 373 nM
[9]; 786-0, cell line 786-0, read-out: cell panel IC50, 786-0
  IC50: 204 nM
[9]; A 172, read-out: cell panel IC50, A-172, cell line A-172
  IC50: 50 nM
[9]; A204, cell line A-204, read-out: cell panel IC50, A-204
  IC50: 11900 nM
[9]; A498, read-out: cell panel IC50, A-498, cell line A-498
  IC50: 1240 nM
[9]; A549, read-out: cell panel IC50, A-549, cell line A-549
  IC50: 732 nM
[9]; A-375, cell line A375, read-out: cell panel IC50, A375
  IC50: 18700 nM
[9]; A-427, read-out: cell panel IC50, A-427, cell line A-427
  IC50: 94 nM
[9]; ACHN, cell line ACHN, read-out: cell panel IC50, ACHN
  IC50: 15100 nM
[9]; AN3-CA, cell line AN3 CA, read-out: cell panel IC50, AN3 CA
  IC50: 104 nM
[9]; AU565, read-out: cell panel IC50, AU-565, cell line AU-565
  IC50: 27300 nM
[9]; BT-20, cell line BT-20, read-out: cell panel IC50, BT-20
  IC50: 7 nM
[9]; BT-549, read-out: cell panel IC50, BT-549, cell line BT-549
  IC50: 58 nM
[9]; BXPC-3, cell line BxPC-3, read-out: cell panel IC50, BxPC-3
  IC50: > 31600 nM
[9]; C-33-A, cell line C-33 A, read-out: cell panel IC50, C-33 A
  IC50: 20 nM
[9]; CAL-27, cell line CAL 27, read-out: cell panel IC50, CAL 27
  IC50: 2690 nM
[9]; CCRF-CEM, cell line CCRF-CEM, read-out: cell panel IC50, CCRF-CEM
  IC50: 1420 nM
[9]; DLD-1, cell line DLD-1, read-out: cell panel IC50, DLD-1
  IC50: 495 nM
[9]; FaDu, cell line FaDu, read-out: cell panel IC50, FaDu
  IC50: 1170 nM
[9]; HCT-15, cell line HCT-15, read-out: cell panel IC50, HCT-15
  IC50: 292 nM
[9]; HCT-116, read-out: cell panel IC50, HCT-116, cell line HCT-116
  IC50: 19100 nM
[9]; Hs-578T, cell line Hs 578T, read-out: cell panel IC50, Hs 578T
  IC50: 49 nM
[9]; Jurkat E6.1, cell line Jurkat E6.1, read-out: cell panel IC50, Jurkat E6.1
  IC50: 63 nM
[9]; K562, read-out: cell panel IC50, K-562, cell line K-562
  IC50: > 31600 nM
[9]; LS174T, read-out: cell panel IC50, LS 174T, cell line LS 174T
  IC50: > 31600 nM
[9]; LoVo, cell line LoVo, read-out: cell panel IC50, LoVo
  IC50: > 31600 nM
[9]; MG-63, cell line MG-63, read-out: cell panel IC50, MG-63
  IC50: 453 nM
[9]; MOLT-4, cell line MOLT-4, read-out: cell panel IC50, MOLT-4
  IC50: 153 nM
[9]; MeWo, cell line MeWo, read-out: cell panel IC50, MeWo
  IC50: > 31600 nM
[9]; NCI-H82, cell line NCI-H82, read-out: cell panel IC50, NCI-H82
  IC50: 4780 nM
[9]; NCI-H460, cell line NCI-H460, read-out: cell panel IC50, NCI-H460
  IC50: 3970 nM
[9]; OVCAR-3, cell line OVCAR-3, read-out: cell panel IC50, OVCAR-3
  IC50: 471 nM
[9]; RPMI-7951, cell line RPMI-7951, read-out: cell panel IC50, RPMI-7951
  IC50: 1.2 nM
[9]; SHP77, cell line SHP-77, read-out: cell panel IC50, SHP-77
  IC50: > 31600 nM
[9]; SK-N-AS, cell line SK-N-AS, read-out: cell panel IC50, SK-N-AS
  IC50: 299 nM
[9]; SW48, cell line SW48, read-out: cell panel IC50, SW48
  IC50: 18800 nM
[9]; SW480, cell line SW480, read-out: cell panel IC50, SW480
  IC50: 14800 nM
[9]; SW-620, cell line SW620, read-out: cell panel IC50, SW620
  IC50: 16700 nM
[9]; U2OS, cell line U-2 OS, read-out: cell panel IC50, U-2 OS
  IC50: 4250 nM
[9]; cell line J82, read-out: cell panel IC50, J82
  IC50: 433 nM
[9]; cell line PA-1, read-out: cell panel IC50, PA-1
  IC50: 3350 nM
[9]; cell line SJCRH30, read-out: cell panel IC50, SJCRH30
  IC50: 28400 nM
[9]; cell line SR, read-out: cell panel IC50, SR
  IC50: 109 nM
[9]; U-87 MG cell line, ATPlite, 72 hours, read-out: IC50 in cell proliferation assay (table S5 cellpanel data)
  IC50: 652 nM
